Test results from paper PMC3800266 (Journal of the American Chemical Society, 2013).
In brackets after ≈: the same amount, converted by molar mass.

Tests used:
VRE (VanA), MMX 486 [1] = experiment: microbe, parasite or virus in culture; details: Enterococcus, read-out: MIC, VRE (VanA)
[2] = test system: vancomycin-susceptible enterococci, ATCC 29212; experiment: organism not typed; details: read-out: MIC, VSE
[3] = test system: vancomycin-resistant enterococci (VanB), ATCC 51299; experiment: microbe, parasite or virus in culture; details: Enterococcus, ATCC51299|VRE, read-out: MIC, VRE (VanB)
[4] = test system: vancomycin-resistant enterococci (VanB), ATCC 51299; details: teicoplanin susceptible
[5] = test system: methicillin-resistant S. aureus, ATCC 43300
[6] = test system: vancomycin-susceptible enterococci, ATCC 29212
VRE (VanA), MMX 486 [7] = details: vancomycin and teicoplanin resistant
[8] = test system: methicillin-susceptible S. aureus, ATOC 29213

| MIC (VRE (VanA), MMX 486 [1]) [µg/mL] | MIC [2] [µg/mL] | MIC [3] [µg/mL] | Compound | MIC, VRE (VanB) [4] [µg/mL] | MIC, MRSA [5] [µg/mL] | MIC, VSE [6] [µg/mL] | MIC, VRE (VanA) (VRE (VanA), MMX 486 [7]) [µg/mL] | MIC, MSSA [8] [µg/mL] |
| --- | --- | --- | --- | --- | --- | --- | --- | --- |
| 2 (≈ 5.93 µM) | 2 (≈ 5.93 µM) | 2 (≈ 5.93 µM) | CC(=O)NC[C@H]1CN(c2ccc(N3CCOCC3)c(F)c2)C(=O)O1 [Linezolid] |  |  |  |  |  |
|  |  |  | CN[C@H](CC(C)C)C(=O)N[C@H]1C(=O)N[C@@H](CC(N)=O)C(=O)N[C@H]2C(=O)N[C@H]3C(=O)N[C@H](C(=O)N[C@H](C(=O)O)c4cc(O)cc(O)c4-c4cc3ccc4O)[C@H](O)c3ccc(c(Cl)c3)Oc3cc2cc(c3O[C@@H]2O[C@H](CO)[C@@H](O)[C@H](O)[C@H]2O[C@H]2C[C@](C)(N)[C@H](O)[C@H](C)O2)Oc2ccc(cc2Cl)[C@H]1O [Vancomycin] | 16 (≈ 11 µM) | 1 (≈ 0.69 µM) | 2 (≈ 1.38 µM) | >64 | 0.5 (≈ 0.345 µM) |
|  |  |  | Teicoplanin | 0.25 | 0.5 | 0.25 | >64 | 0.5 |
|  |  |  | teicoplanin A2-2 | 0.25 | 0.5 | 0.25 | >64 | 0.5 |
